The source of these data is publication PMC6663879, “Biochemical and structural investigations clarify the substrate selectivity of the 2-oxoglutarate oxygenase JMJD6” (The Journal of Biological Chemistry, 2019).

Read-outs that look alike come from different tables or passages of the source.

The test system of assay [1] is JMJD2E (KDM4E). In words: MS-based demethylation assay, positive control for RDM activity. The assay is classed as biochemical. To be noted: same conditions, MALDI-TOF MS / LC-MS/MS. How it is done:
Reaction samples were thereafter analyzed by MALDI-TOF or LC-MS/MS.
Peptides were “trapped” on an in-house packed guard column (75-μm inner diameter × 20 mm, Acclaim PepMap® C18, 3 μm, 100 Å) using solvent A (0.1% (v/v) aqueous formic acid) at a pressure of 140 bar. Peptides were separated on an EASY-Spray Acclaim PepMap® analytical column (75 μm inner diameter × 15 mm, rapid separation liquid chromatography C18, 3 μm, 100 Å) using a linear gradient (length, 100 min; 3–60% solvent B (0.1% formic acid in acetonitrile), flow rate, 300 nl/min). The separated peptides were electro-sprayed directly into the spectrometer operating in a data-dependent mode using a collision-induced dissociation/electron transfer dissociation (CID/ETD)-based method. Full scan MS spectra (scan range 150–2000 m/z, resolution 30,000, AGC target 1 × 10^6, maximum injection time 250 ms) and subsequent CID MS/MS spectra (AGC target 3 × 10^4, maximum injection time 500 ms) of the 10 most intense peaks were acquired in the Orbitrap. CID fragmentation was performed at 35% of the normalized collision energy, and the signal intensity threshold was kept at 500 counts. ETD spectra (AGC cation target 5 × 10^4, AGC anion target 2 × 10^5, and cation maximum injection time 100 ms) were acquired in the ion trap. PEAKS® 8.0 (Bioinformatics Solutions, Inc., Waterloo, Canada) was used to analyze raw data. […]

The target of assay [2] is T1, JMJD6^Δ363–403 (Homo sapiens, UniProt Q6NYC1). Kind of assay: Standard MS-based hydroxylation assay (MALDI-TOF MS) of substrate peptides. The arrangement: two more variants (aa 1–362, JMJD6^Δ363–403, and aa 1–343, JMJD6^Δ344–403); His6 (N); made in house; host or cells: Escherichia coli Rosetta2(DE3). The assay is classed as biochemical. To be noted: JMJD6^Δ363–403, standard assay conditions, MALDI-TOF MS / LC-MS/MS.

For assay [3], the target named is T1, JMJD6^Δ363–403. Kind of assay: Standard MS-based demethylation assay (MALDI-TOF, LC-MS/MS). The class given is biochemical. Further details: two more variants (aa 1–362, JMJD6^Δ363–403, and aa 1–343, JMJD6^Δ344–403); His6 (N); made in house; host or cells: Escherichia coli Rosetta2(DE3). To be noted: JMJD6^Δ363–403, 37 °C, HEPES-KOH pH 8.0, MALDI-TOF MS / LC-MS/MS. How it is done:
Peptides were “trapped” on an in-house packed guard column (75-μm inner diameter × 20 mm, Acclaim PepMap® C18, 3 μm, 100 Å) using solvent A (0.1% (v/v) aqueous formic acid) at a pressure of 140 bar. Peptides were separated on an EASY-Spray Acclaim PepMap® analytical column (75 μm inner diameter × 15 mm, rapid separation liquid chromatography C18, 3 μm, 100 Å) using a linear gradient (length, 100 min; 3–60% solvent B (0.1% formic acid in acetonitrile), flow rate, 300 nl/min). The separated peptides were electro-sprayed directly into the spectrometer operating in a data-dependent mode using a collision-induced dissociation/electron transfer dissociation (CID/ETD)-based method. Full scan MS spectra (scan range 150–2000 m/z, resolution 30,000, AGC target 1 × 10^6, maximum injection time 250 ms) and subsequent CID MS/MS spectra (AGC target 3 × 10^4, maximum injection time 500 ms) of the 10 most intense peaks were acquired in the Orbitrap. CID fragmentation was performed at 35% of the normalized collision energy, and the signal intensity threshold was kept at 500 counts. ETD spectra (AGC cation target 5 × 10^4, AGC anion target 2 × 10^5, and cation maximum injection time 100 ms) were acquired in the ion trap. PEAKS® 8.0 (Bioinformatics Solutions, Inc., Waterloo, Canada) was used to analyze raw data. The raw MS files were searched against the respective protein sequences. […]

The target of assay [4] is JMJD6^FL. In words: CPMG-edited NMR titration, apparent binding constant of 2OG. Further details: species or system human. As to conditions: CPMG-edited 1H NMR (700 MHz), 20 μM 2OG, 200 μM Zn(II), Tris-d11 pH 7.5, titrated with EDTA-treated JMJD6; mean ± S.D. (n = 3); read-out: 2OG KD^app. The procedure: (§1) 20 μM 2OG and 200 μM Zn(II) were mixed in deuterated Tris-d11, pH 7.5, and the ^1H NMR signals for 2OG were recorded at 700 MHz ([39]). […] Typically, a 5–10% error was allowed in the curve-fitting process.
(§2) CPMG displacement experiments used a Bruker AV700 NMR machine, as reported previously ([39]). The PROJECT (Periodic Refocusing of J Evolution by Coherence Transfer)-CPMG sequence (90°x − (τ − 180°y − τ − 90°y − τ − 180°y − τ)n − acquisition) was applied ([56]). […] Water suppression was achieved by presaturation ([57], [58]).

The target in assay [5] is JMJD6^Δ344–403. Described as above. The arrangement: species or system human. As to conditions: CPMG-edited 1H NMR (700 MHz), 20 μM 2OG, 200 μM Zn(II), Tris-d11 pH 7.5, titrated with EDTA-treated JMJD6; mean ± S.D. (n = 3); read-out: 2OG KD^app. The procedure:
as §1, §2

Assay [6] relates to JMJD6^FL. To be noted: read-out: 2OG Km^app; standard hydroxylation assay conditions, 2OG varied 0–150 μM, 37 °C, HEPES-KOH pH 8.0; mean ± S.D. (n = 3). The procedure:
(§3) JMJD6 activity was assayed using a reaction mixture of 10 μM purified JMJD6 and 100 μM substrate peptide, at 37 °C in 50 mM HEPES-KOH, pH 8.0, buffer supplemented with 100 μM (NH4)2Fe(SO4)2·6H2O (Sigma), 400 μM L-sodium ascorbate (Sigma), and 500 μM disodium 2OG (Fluka). After 30 min, the reaction was quenched by an equal volume of 1% (v/v) aqueous formic acid (Sigma). In a 96-well MALDI plate (Waters), 0.8 μl of CHCA (α-cyano-4-hydroxycinnamic acid, Aldrich) ([…] in 0.1 ml of CHCA solvent) and 0.6 μl of the quenched mixture were placed in a well. After drying, the samples were analyzed by MALDI-TOF MS using a reported procedure ([59], [60]). The kinetic data obtained thereafter were fitted using GraphPad Prism (GraphPad Software) ([59], [60]).

Assay [7] relates to JMJD6^Δ344–403. As to conditions: read-out: 2OG Km^app; standard hydroxylation assay conditions, 2OG varied 0–150 μM, 37 °C, HEPES-KOH pH 8.0; mean ± S.D. (n = 3). How it is done: as §3
Assay [8] has as its target T1, JMJD6^Δ363–403. As to conditions: read-out: 2OG Km^app; standard hydroxylation assay conditions, 2OG varied 0–150 μM, 37 °C, HEPES-KOH pH 8.0; mean ± S.D. (n = 3). The procedure: as §3
The test system of assay [9] is JMJD6^FL. To be noted: read-out: 2OG Km^app; reported for JMJD6^FL; ref Mantri et al. ([23]); cited from earlier work.
Assay [10] has as its target T1, JMJD6^Δ363–403. Kind of assay: CPMG-edited NMR titration, apparent binding constant of 2OG. Further details: two more variants (aa 1–362, JMJD6^Δ363–403, and aa 1–343, JMJD6^Δ344–403); His6 (N); made in house; host or cells: Escherichia coli Rosetta2(DE3). As to conditions: CPMG-edited 1H NMR (700 MHz), 20 μM 2OG, 200 μM Zn(II), Tris-d11 pH 7.5, titrated with EDTA-treated JMJD6; mean ± S.D. (n = 3); read-out: 2OG KD^app. The procedure: as §1, §2

Consider “SGR(me2s)GKGGKGLGKGGAKRHK-biotin [H4R3(me2s)1–18, histone 4 peptide with symmetrically di-methylated Arg3 and K-biotin]”, for which, in assay [1], the “JMJD2E-catalyzed demethylation (−14 and −28 Da mass shifts), result in words” value is recorded as “manifested demethylation”. Moreover, the “JMJD6-catalyzed hydroxylation (+16-Da mass shift), result in words” value in [2] is recorded as “catalyzes hydroxylation”. In addition, in assay [3], the “JMJD6-catalyzed demethylation (−14 or −28 Da mass shift), result in words” value is reported as “does not have RDM activity”.
Broadly, the Km is the concentration of substrate that gives half-maximal velocity. For `O=C(O)CCC(=O)C(=O)O` [Peptide 2OG, 2-oxoglutarate], the Kd in [4] is 2300 ± 1600 nM; in assay [5], 3500 ± 2100 nM; in [10], 3000 ± 4800 nM. Also, the Michaelis-Menten constant (Km) in [6] is 31 ± 5.3 µM; in assay [7], 45 ± 10 µM; in assay [8] it was 24 ± 5.4 µM; in assay [9], 39 µM.
